Measurements published in ChEMBL document CHEMBL3046521, “Synthesis and antitumor activity of (4-hydroxyphenyl)[5-substituted alkyl/aryl)-2-thioxo-1,3,4-thiadiazol-3-yl]methanone and [(3,4-disubstituted)-1,3-thiazol-2ylidene]-4-hydroxybenzohydrazide” (2011).

Key:
Type in all cases: functional
[1] = system: UACC-257; assay: Cytotoxicity against Homo sapiens (human) UACC257 cells after 48 hr by sulforhodamine B assay; conditions: UACC-257, 48 h
[2] = system: HCC 2998; assay: Cytotoxicity against Homo sapiens (human) HCC2998 cells after 48 hr by sulforhodamine B assay; conditions: HCC 2998, 48 h
[3] = system: Malme-3M; assay: Cytotoxicity against Homo sapiens (human) MALME-3M cells after 48 hr by sulforhodamine B assay
[4] = system: SF-268; assay: Cytotoxicity against Homo sapiens (human) SF268 cells after 48 hr by sulforhodamine B assay; conditions: SF-268, 48 h
[5] = system: IGROV-1; assay: Cytotoxicity against Homo sapiens (human) IGROV1 cells after 48 hr by sulforhodamine B assay; conditions: IGROV-1, 48 h
[6] = system: SF-539; assay: Cytotoxicity against Homo sapiens (human) SF539 cells after 48 hr by sulforhodamine B assay; conditions: SF-539, 48 h
[7] = system: SR; assay: Cytotoxicity against Homo sapiens (human) SR cells after 48 hr by sulforhodamine B assay
[8] = system: DU-145; assay: Cytotoxicity against Homo sapiens (human) DU145 cells after 48 hr by sulforhodamine B assay; conditions: DU-145, 48 h
[9] = system: PC-3; assay: Cytotoxicity against Homo sapiens (human) PC3 cells after 48 hr by sulforhodamine B assay; conditions: PC-3, 48 h
[10] = system: M14; assay: Cytotoxicity against Homo sapiens (human) M14 cells after 48 hr by sulforhodamine B assay; conditions: M14, 48 h
[11] = system: U-251; assay: Cytotoxicity against Homo sapiens (human) U251 cells after 48 hr by sulforhodamine B assay; conditions: U-251, 48 h
[12] = system: EKVX; assay: Cytotoxicity against Homo sapiens (human) EKVX cells after 48 hr by sulforhodamine B assay
[13] = system: HOP-62; assay: Cytotoxicity against Homo sapiens (human) HOP62 cells after 48 hr by sulforhodamine B assay; conditions: HOP-62, 48 h
[14] = system: HCT-15; assay: Cytotoxicity against Homo sapiens (human) HCT15 cells after 48 hr by sulforhodamine B assay; conditions: HCT-15, 48 h
[15] = system: Hs-578T; assay: Cytotoxicity against Homo sapiens (human) Hs 578T cells after 48 hr by sulforhodamine B assay
[16] = system: HL-60(TB); assay: Cytotoxicity against Homo sapiens (human) HL-60(TB) cells after 48 hr by sulforhodamine B assay; conditions: HL-60, 48 h
[17] = system: KM12; assay: Cytotoxicity against Homo sapiens (human) KM12 cells after 48 hr by sulforhodamine B assay; conditions: KM12, 48 h
[18] = system: SNB-75; assay: Cytotoxicity against Homo sapiens (human) SNB75 cells after 48 hr by sulforhodamine B assay; conditions: SNB-75, 48 h
[19] = system: SK-OV-3; assay: Cytotoxicity against Homo sapiens (human) SKOV3 cells after 48 hr by sulforhodamine B assay; conditions: SK-OV-3, 48 h
[20] = system: CAKI-1; assay: Cytotoxicity against Homo sapiens (human) Caki1 cells after 48 hr by sulforhodamine B assay; conditions: CAKI-1, 48 h
[21] = system: SK-MEL-2; assay: Cytotoxicity against Homo sapiens (human) SK-MEL-2 cells after 48 hr by sulforhodamine B assay; conditions: SK-MEL-2, 48 h
[22] = Cytotoxicity against Homo sapiens (human) […] cells after 48 hr by sulforhodamine B assay
[23] = system: NCI-H226; assay: Cytotoxicity against Homo sapiens (human) NCI-H226 cells after 48 hr by sulforhodamine B assay; conditions: NCI-H226, 48 h
[24] = system: OVCAR-4; assay: Cytotoxicity against Homo sapiens (human) OVCAR4 cells after 48 hr by sulforhodamine B assay; conditions: OVCAR-4, 48 h
[25] = system: NCI-H322M; assay: Cytotoxicity against Homo sapiens (human) NCI-H322M cells after 48 hr by sulforhodamine B assay
[26] = system: OVCAR-8; assay: Cytotoxicity against Homo sapiens (human) OVCAR8 cells after 48 hr by sulforhodamine B assay; conditions: OVCAR-8, 48 h
[27] = system: COLO 205; assay: Cytotoxicity against Homo sapiens (human) COLO205 cells after 48 hr by sulforhodamine B assay; conditions: COLO 205, 48 h
[28] = system: SK-MEL-28; assay: Cytotoxicity against Homo sapiens (human) SK-MEL-28 cells after 48 hr by sulforhodamine B assay; conditions: SK-MEL-28, 48 h
[29] = system: K562; assay: Cytotoxicity against Homo sapiens (human) K562 cells after 48 hr by sulforhodamine B assay; conditions: K562, 48 h
[30] = system: UO-31; assay: Cytotoxicity against Homo sapiens (human) UO31 cells after 48 hr by sulforhodamine B assay; conditions: UO-31, 48 h
[31] = system: SNB-19; assay: Cytotoxicity against Homo sapiens (human) SNB19 cells after 48 hr by sulforhodamine B assay; conditions: SNB-19, 48 h

O=C(c1ccc(O)cc1)n1nc(-c2c(Cl)cccc2Cl)sc1=S
GI50 [1]: 14.1 µM | LC50 [1]: > 100 µM | TGI ([1]; read-out: pTGI (converted)): 41.7 µM | GI50 [2]: 4.9 µM | LC50 [2]: > 100 µM | TGI ([2]; read-out: pTGI (converted)): 28.8 µM | GI50 [3]: 29.5 µM | LC50 [3]: > 100 µM | TGI ([3]; read-out: pTGI (converted)): 49 µM | GI50 [4]: 7.59 µM | LC50 [4]: > 100 µM | TGI ([4]; read-out: pTGI (converted)): 34.7 µM | GI50 [5]: 12.9 µM | LC50 [5]: > 100 µM | TGI ([5]; read-out: pTGI (converted)): 89.1 µM | GI50 [6]: 14.8 µM | LC50 [6]: 58.9 µM | TGI ([6]; read-out: pTGI (converted)): 29.5 µM | GI50 [7]: 1.51 µM | LC50 [7]: > 100 µM | TGI ([7]; read-out: pTGI): > 100 µM | GI50 [8]: 5.89 µM | LC50 [8]: 79.4 µM | TGI ([8]; read-out: pTGI (converted)): 29.5 µM | GI50 [9]: 3.31 µM | LC50 [9]: > 100 µM | TGI ([9]; read-out: pTGI (converted)): 30.2 µM | GI50 [10]: 8.91 µM | LC50 [10]: 67.6 µM | TGI ([10]; read-out: pTGI (converted)): 25.7 µM | GI50 [11]: 11.5 µM | LC50 [11]: 91.2 µM | TGI ([11]; read-out: pTGI (converted)): 32.4 µM | GI50 [12]: 5.01 µM | LC50 [12]: > 100 µM | TGI ([12]; read-out: pTGI (converted)): 69.2 µM | GI50 [13]: 18.6 µM | LC50 [13]: > 100 µM | TGI ([13]; read-out: pTGI (converted)): 43.7 µM | GI50 [14]: 6.46 µM | LC50 (concentration killing 50% of cells) [14]: > 100 µM | TGI ([14]; read-out: pTGI (converted)): 32.4 µM | GI50 [15]: 29.5 µM | LC50 [15]: > 100 µM | TGI ([15]; read-out: pTGI (converted)): 89.1 µM | GI50 [16]: 2 µM | CC50 ([16]; read-out: pLC50 (the source's name) (converted)): > 100 µM | TGI ([16]; read-out: pTGI (converted)): 30.9 µM | GI50 [17]: 3.8 µM | LC50 [17]: 41.7 µM | TGI ([17]; read-out: pTGI (converted)): 14.8 µM | GI50 [18]: 16.6 µM | LC50 [18]: > 100 µM | TGI ([18]; read-out: pTGI (converted)): 50.1 µM | GI50 [19]: 17.4 µM | LC50 [19]: > 100 µM | TGI ([19]; read-out: pTGI (converted)): 44.7 µM | GI50 [20]: 6.03 µM | LC50 [20]: > 100 µM | TGI ([20]; read-out: pTGI (converted)): 57.5 µM | GI50 [21]: 14.5 µM | LC50 [21]: 95.5 µM | TGI ([21]; read-out: pTGI (converted)): 37.2 µM | GI50 [22]: 7.59 µM | LC50 [22]: > 100 µM | TGI ([22]; read-out: pTGI (converted)): 60.3 µM | GI50 [23]: 12.9 µM | LC50 [23]: > 100 µM | TGI ([23]; read-out: pTGI (converted)): 57.5 µM | GI50 [24]: 11.5 µM | LC50 [24]: > 100 µM | TGI ([24]; read-out: pTGI (converted)): 77.6 µM | GI50 [25]: 15.1 µM | LC50 [25]: > 100 µM | TGI ([25]; read-out: pTGI (converted)): 66.1 µM | GI50 [26]: 22.9 µM | LC50 [26]: > 100 µM | TGI ([26]; read-out: pTGI (converted)): 72.4 µM | GI50 [27]: 13.5 µM | LC50 [27]: 64.6 µM | TGI ([27]; read-out: pTGI (converted)): 29.5 µM | GI50 [28]: 16.2 µM | LC50 (concentration killing 50% of cells) [28]: 87.1 µM | TGI ([28]; read-out: pTGI (converted)): 37.2 µM | GI50 [29]: 3.39 µM | LC50 [29]: > 100 µM | TGI ([29]; read-out: pTGI (converted)): 28.8 µM | GI50 [30]: 9.33 µM | LC50 [30]: > 100 µM | TGI ([30]; read-out: pTGI): > 100 µM | GI50 [31]: 15.1 µM | LC50 [31]: > 100 µM | TGI ([31]; read-out: pTGI (converted)): 67.6 µM
